According to patent US11414425B2 (priority 2018, dated 2022):

These compounds were tested against α5β3γ2 GABAA receptors (Homo sapiens, UniProt P18507+P31644) (assay: [3H]Ro15-1788 binding, membranes of Ltk cells stably expressing α5β3γ2 GABAA receptors). Conditions: not given.
α5β3γ2 GABAA receptors, sequence (P31644 32-462): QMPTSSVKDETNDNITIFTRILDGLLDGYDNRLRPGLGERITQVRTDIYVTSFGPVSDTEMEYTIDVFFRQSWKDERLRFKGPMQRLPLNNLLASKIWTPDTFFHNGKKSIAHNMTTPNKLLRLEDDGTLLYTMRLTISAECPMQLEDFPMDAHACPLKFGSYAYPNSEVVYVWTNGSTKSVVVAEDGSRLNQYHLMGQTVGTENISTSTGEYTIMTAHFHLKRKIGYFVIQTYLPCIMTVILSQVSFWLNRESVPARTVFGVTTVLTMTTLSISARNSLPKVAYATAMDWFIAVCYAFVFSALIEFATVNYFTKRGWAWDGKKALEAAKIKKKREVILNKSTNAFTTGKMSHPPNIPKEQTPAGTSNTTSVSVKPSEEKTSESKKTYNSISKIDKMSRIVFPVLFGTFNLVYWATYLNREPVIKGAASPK
α5β3γ2 GABAA receptors, sequence (P28472 26-473 partner): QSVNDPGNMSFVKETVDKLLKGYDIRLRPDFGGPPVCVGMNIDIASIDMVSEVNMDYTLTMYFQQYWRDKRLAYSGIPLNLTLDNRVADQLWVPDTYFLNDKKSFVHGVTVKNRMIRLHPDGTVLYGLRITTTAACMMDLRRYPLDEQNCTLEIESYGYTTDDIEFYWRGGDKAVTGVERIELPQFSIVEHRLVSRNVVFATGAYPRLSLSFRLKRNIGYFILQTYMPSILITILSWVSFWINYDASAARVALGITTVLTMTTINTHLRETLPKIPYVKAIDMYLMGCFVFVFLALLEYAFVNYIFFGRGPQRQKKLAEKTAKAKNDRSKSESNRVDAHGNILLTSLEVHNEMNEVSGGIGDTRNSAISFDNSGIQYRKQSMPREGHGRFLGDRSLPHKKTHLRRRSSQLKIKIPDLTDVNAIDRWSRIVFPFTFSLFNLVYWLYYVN
α5β3γ2 GABAA receptors, sequence (P18507 40-475): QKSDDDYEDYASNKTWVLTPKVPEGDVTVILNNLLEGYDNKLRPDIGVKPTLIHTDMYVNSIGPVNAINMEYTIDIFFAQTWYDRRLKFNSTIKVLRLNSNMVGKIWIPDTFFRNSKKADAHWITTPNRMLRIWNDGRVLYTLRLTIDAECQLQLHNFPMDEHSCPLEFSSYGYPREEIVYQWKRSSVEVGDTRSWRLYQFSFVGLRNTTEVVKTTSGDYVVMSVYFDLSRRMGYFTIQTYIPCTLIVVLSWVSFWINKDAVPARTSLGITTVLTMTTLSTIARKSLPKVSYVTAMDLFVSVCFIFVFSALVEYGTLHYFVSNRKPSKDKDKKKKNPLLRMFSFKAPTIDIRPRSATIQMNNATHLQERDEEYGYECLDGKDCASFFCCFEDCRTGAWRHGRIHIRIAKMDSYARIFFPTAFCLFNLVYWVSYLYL

Compound | Ki [µM]
COc1ccc2c(c1)-n1nncc1Cc1c(C3=NCC(C4CCCCC4)O3)ncn1-2 (racemic) [Compound 690] | 0.1 to 1
COc1ccc2c(c1)-n1nncc1Cc1c(C3=NCC(c4cccnc4)O3)ncn1-2 (racemic) [Compound 691] | < 0.1
Cc1noc(-c2ncn3c2Cc2c(Cc4ccc(F)cc4)nnn2-c2cc(Cl)ccc2-3)n1 [Compound 479] | < 0.1
CCCc1noc(-c2ncn3c2Cc2c(Cc4cccc(F)c4)nnn2-c2cc(Cl)ccc2-3)n1 [Compound 480] | 0.1 to 1
Cc1noc(-c2ncn3c2Cc2c(Cc4ccc(F)cc4)nnn2-c2cc(C(F)(F)F)ccc2-3)n1 [Compound 484] | < 0.1
COc1ccc2c(c1)-n1nncc1Cc1c(-c3cn(-c4ccccc4)nn3)ncn1-2 [Compound 524] | 0.1 to 1
COc1ccc(C#Cc2ncn3c2Cc2cnnn2-c2cc(Cl)ccc2-3)nc1 [Compound 532] | < 0.1
Clc1cccc(COCc2ncn3c2Cc2cnnn2-c2cc(Cl)ccc2-3)c1 [Compound 542] | 0.1 to 1
Fc1cccc(COCc2ncn3c2Cc2cnnn2-c2cc(Cl)ccc2-3)c1 [Compound 543] | 0.1 to 1
Clc1ccc2c(c1)-n1nncc1Cc1c(COc3ccccc3)ncn1-2 [Compound 548] | < 0.1
Fc1cccc(Cc2nnn3c2Cc2c(-c4nc(-c5ccccc5)no4)ncn2-c2ccc(C(F)(F)F)cc2-3)c1 [Compound 551] | 0.1 to 1

Same assay, conditions: ranges; inhibition of [3H]Ro15-1788 binding

Compound | Ki [µM]
CCOC(=O)c1ncn2c1Cc1c(Cc3ccccc3Cl)nnn1-c1cc(C)ccc1-2 [Compound 54] | < 0.1
CC(C)OCc1nnc2n1Cc1c(-c3nc(-c4ccccc4)co3)ncn1-c1ccc(Cl)cc1-2 [Compound 276] | < 0.1
C#Cc1ccc2c(c1)-c1nnc(COC)n1Cc1c(C3=N[C@H](CC(C)C)CO3)ncn1-2 [Compound 280] | < 0.1
COCc1nnc2n1Cc1c(C)ncn1-c1ccc(OC)cc1-2 [Compound 329] | > 1
C#Cc1ncn2c1Cn1c(COCC(F)(F)F)nnc1-c1cc(Cl)ccc1-2 [Compound 342] | < 0.1
COCc1nnc2n1Cc1c(-c3nc(C)no3)ncn1-c1ccc(-c3ccncc3)cc1-2 [Compound 468] | > 1
COCc1nnc2n1Cc1c(-c3nc(C)no3)ncn1-c1cccc(OC)c1-2 [Compound 472] | 0.1 to 1
Cc1noc(-c2ncn3c2Cc2c(Cc4cccc(F)c4)nnn2-c2cc(Cl)ccc2-3)n1 [Compound 477] | < 0.1
Cc1noc(-c2ncn3c2Cc2c(Cc4ccc(F)cc4)nnn2-c2cc(OC(F)(F)F)ccc2-3)n1 [Compound 478] | < 0.1
CC(C)c1noc(-c2ncn3c2Cc2c(Cc4ccc(F)cc4)nnn2-c2cc(OC(F)(F)F)ccc2-3)n1 [Compound 483] | < 0.1
CCCc1noc(-c2ncn3c2Cc2c(Cc4ccc(F)cc4)nnn2-c2cc(OC(F)(F)F)ccc2-3)n1 [Compound 486] | < 0.1
CC(C)c1noc(-c2ncn3c2Cc2c(Cc4cccc(F)c4)nnn2-c2cc(C(F)(F)F)ccc2-3)n1 [Compound 487] | 0.1 to 1
CC(C)c1noc(-c2ncn3c2Cc2c(Cc4ccc(F)cc4)nnn2-c2cc(Cl)ccc2-3)n1 [Compound 489] | < 0.1
CC(C)c1noc(-c2ncn3c2Cc2c(Cc4ccc(F)cc4)nnn2-c2cc(C(F)(F)F)ccc2-3)n1 [Compound 490] | < 0.1
Fc1ccc(Cc2nnn3c2Cc2c(-c4ncco4)ncn2-c2ccc(OC(F)(F)F)cc2-3)cc1 [Compound 495] | 0.1 to 1
Cc1nc(-c2ncn3c2Cc2c(Cc4ccc(F)cc4)nnn2-c2cc(Cl)ccc2-3)no1 [Compound 496] | < 0.1
COc1ccc(C#Cc2ncn3c2Cc2cnnn2-c2cc(OC(F)(F)F)ccc2-3)cc1 [Compound 497] | < 0.1
FC(F)(F)c1ccc2c(c1)-n1nncc1Cc1c(C#Cc3ccc(Cl)cc3)ncn1-2 [Compound 502] | < 0.1
FC(F)(F)c1ccc2c(c1)-n1nncc1Cc1c(C3=N[C@H](c4ccccc4)CO3)ncn1-2 [Compound 506] | < 0.1
CC1(C)OC(c2ncn3c2Cc2cnnn2-c2cc(OC(F)(F)F)ccc2-3)=N[C@@H]1c1ccccc1 [Compound 510] | < 0.1
Fc1ccc(-n2cc(-c3ncn4c3Cc3cnnn3-c3cc(Cl)ccc3-4)nn2)cc1 [Compound 525] | < 0.1
COc1ccc2c(c1)-n1nncc1Cc1c(C#Cc3ccc(C(F)(F)F)cn3)ncn1-2 [Compound 529] | 0.1 to 1
COc1ccc(C#Cc2ncn3c2Cc2cnnn2-c2cc(Cl)ccc2-3)cn1 [Compound 533] | < 0.1

Compound | Ki [µM]
Clc1ccc2c(c1)-c1nnc(Oc3ccccc3)n1Cc1c(C3=N[C@H](c4ccccc4)CO3)ncn1-2 [Compound 541] | < 0.1
Fc1ccc(OCc2ncn3c2Cc2cnnn2-c2cc(Cl)ccc2-3)cc1 [Compound 545] | < 0.1
Fc1cccc(OCc2ncn3c2Cc2cnnn2-c2cc(Cl)ccc2-3)c1 [Compound 546] | < 0.1
Fc1ccccc1OCc1ncn2c1Cc1cnnn1-c1cc(Cl)ccc1-2 [Compound 547] | 0.1 to 1
Fc1cccc(Cc2nnn3c2Cc2c(-c4nc(-c5ccccc5)no4)ncn2-c2ccc(Cl)cc2-3)c1 [Compound 550] | 0.1 to 1
Fc1cccc(Cc2nnn3c2Cc2c(-c4nc(-c5ccccc5)no4)ncn2-c2ccc(OC(F)F)cc2-3)c1 [Compound 552] | 0.1 to 1
COc1ccc(C#Cc2ncn3c2Cc2cnnn2-c2cc(C(F)(F)F)ccc2-3)nc1 [Compound 554] | < 0.1
COCc1nnc2n1Cc1c(C#Cc3ccc(C)nc3)ncn1-c1ccc(Cl)cc1-2 [Compound 556] | 0.1 to 1
COCc1nnc2n1Cc1c(C#Cc3ccc(C)cn3)ncn1-c1ccc(Cl)cc1-2 [Compound 557] | < 0.1
COCc1nnc2n1Cc1c(C#Cc3cc(C)ccn3)ncn1-c1ccc(Cl)cc1-2 [Compound 560] | < 0.1
COCc1nnc2n1Cc1c(C#Cc3cc(C)ccn3)ncn1-c1ccc(OC)cc1-2 [Compound 564] | 0.1 to 1
COCc1nnc2n1Cc1c(C#Cc3ccc(O)nc3)ncn1-c1ccc(Cl)cc1-2 [Compound 568] | < 0.1
COCc1nnc2n1Cc1c(C#Cc3cncnc3)ncn1-c1ccc(Cl)cc1-2 [Compound 569] | < 0.1
COCc1nnc2n1Cc1c(C#Cc3ncccn3)ncn1-c1ccc(Cl)cc1-2 [Compound 571] | < 0.1
COCc1nnc2n1Cc1c(C#Cc3ccc(F)cn3)ncn1-c1ccc(Cl)cc1-2 [Compound 572] | < 0.1
COCc1nnc2n1Cc1c(C#Cc3cnc(C)nc3)ncn1-c1ccc(Cl)cc1-2 [Compound 573] | 0.1 to 1
COCc1nnc2n1Cc1c(C#Cc3cnc(OC)nc3)ncn1-c1ccc(Cl)cc1-2 [Compound 575] | 0.1 to 1
COCc1nnc2n1Cc1c(C#Cc3ccc(C#N)cn3)ncn1-c1ccc(Cl)cc1-2 [Compound 577] | 0.1 to 1
COCc1nnc2n1Cc1c(C#Cc3cnc(OC)cn3)ncn1-c1ccc(Cl)cc1-2 [Compound 578] | < 0.1
COCc1nnc2n1Cc1c(C#Cc3ccc(Cl)cn3)ncn1-c1ccc(Cl)cc1-2 [Compound 579] | < 0.1
COCc1nnc2n1Cc1c(C#Cc3ccc(OC(F)(F)F)cn3)ncn1-c1ccc(Cl)cc1-2 [Compound 580] | < 0.1
COCc1nnc2n1Cc1c(C#Cc3ccc(OC)c(F)n3)ncn1-c1ccc(OC)cc1-2 [Compound 583] | 0.1 to 1
COCc1nnc2n1Cc1c(C#Cc3cnc(OC)nc3)ncn1-c1ccc(OC)cc1-2 [Compound 584] | 0.1 to 1

Compound | Ki [µM]
COCc1nnc2n1Cc1c(C#Cc3ccc(F)cn3)ncn1-c1ccc(OC)cc1-2 [Compound 585] | < 0.1
COCc1nnc2n1Cc1c(C#Cc3ccc(OC)c(C)n3)ncn1-c1ccc(OC)cc1-2 [Compound 586] | < 0.1
COCc1nnc2n1Cc1c(C#Cc3ccc(C(F)(F)F)cn3)ncn1-c1ccc(OC)cc1-2 [Compound 587] | < 0.1
COCc1nnc2n1Cc1c(C#Cc3cnc(C)cn3)ncn1-c1ccc(OC)cc1-2 [Compound 588] | < 0.1
COCc1nnc2n1Cc1c(C#Cc3ccc(C#N)cn3)ncn1-c1ccc(OC)cc1-2 [Compound 590] | 0.1 to 1
COCc1nnc2n1Cc1c(C#Cc3ccc(Cl)cn3)ncn1-c1ccc(OC)cc1-2 [Compound 591] | < 0.1
COCc1nnc2n1Cc1c(C#Cc3cncnc3)ncn1-c1ccc(OC)cc1-2 [Compound 592] | < 0.1
COCc1nnc2n1Cc1c(C#Cc3ncc(OC)cn3)ncn1-c1ccc(OC)cc1-2 [Compound 593] | < 0.1
COCc1nnc2n1Cc1c(C#Cc3cnc(C)nc3)ncn1-c1ccc(OC)cc1-2 [Compound 594] | 0.1 to 1
COCc1nnc2n1Cc1c(C#Cc3ncc(C)cn3)ncn1-c1ccc(OC)cc1-2 [Compound 595] | 0.1 to 1
COCc1nnc2n1Cc1c(C#Cc3cccc(C)n3)ncn1-c1ccc(OC)cc1-2 [Compound 598] | < 0.1
CCc1cncc(C#Cc2ncn3c2Cn2c(COC)nnc2-c2cc(OC)ccc2-3)c1 [Compound 599] | < 0.1
COCc1nnc2n1Cc1c(C#Cc3ncc(C)cn3)ncn1-c1ccc(Cl)cc1-2 [Compound 600] | 0.1 to 1
COCc1nnc2n1Cc1c(C#Cc3ncc(C)s3)ncn1-c1ccc(OC)cc1-2 [Compound 601] | < 0.1
COCc1nnc2n1Cc1c(C#Cc3nc(C)cs3)ncn1-c1ccc(OC)cc1-2 [Compound 602] | < 0.1
COCc1nnc2n1Cc1c(C#Cc3cccc(OC)n3)ncn1-c1ccc(Cl)cc1-2 [Compound 611] | < 0.1
COCc1nnc2n1Cc1c(C#Cc3cccc(OC)n3)ncn1-c1ccc(OC)cc1-2 [Compound 612] | < 0.1
COCc1nnc2n1Cc1c(C#Cc3ccc(OC(F)(F)F)cn3)ncn1-c1ccc(OC)cc1-2 [Compound 613] | < 0.1
COCc1nnc2n1Cc1c(C#Cc3cccnc3OC)ncn1-c1ccc(Cl)cc1-2 [Compound 614] | < 0.1
COc1ccc2c(c1)-c1nnc(COC(F)F)n1Cc1c(C#Cc3ccc(OC)nc3)ncn1-2 [Compound 620] | < 0.1
COc1ccc2c(c1)-n1nncc1Cc1c(C#Cc3cnc(OC)s3)ncn1-2 [Compound 621] | < 0.1
COc1ncc(C#Cc2ncn3c2Cc2cnnn2-c2cc(Cl)ccc2-3)s1 [Compound 622] | < 0.1
FC(F)Oc1ccc2c(c1)-n1nncc1Cc1c(C3=NC[C@H](c4ccccc4)O3)ncn1-2 [Compound 625] | 0.1 to 1
